The source of these data is a melting point compilation (Tetko et al.; mined from patent text by program, amines drawn as free bases though some values may be those of a salt).

For orientation: melting point means the temperature, or range, at which the solid turns liquid.

In turn, `CCCCc1nc2cc(-c3ccccc3)cc(C(=O)OC)c2n1Cc1ccccc1Cl` gave a melting point of 103 to 105 °C.
Next, `CC(C)(C)c1cc(C(=O)Nc2ccccc2NC(=O)NCC(c2ccccc2)c2ccccc2)cc(C(C)(C)C)c1O`: 198 to 200 °C; `Cc1ccc(-c2ccc3c(c2)C=C(C(=O)N[C@H]2CC[C@H](CN(C)C4CCN(C(=O)OC(C)(C)C)CC4)CC2)CCO3)cc1`: 146 to 150 °C; `COc1cc(Nc2nccc(Nc3ccc(CC(=O)O)cc3)n2)cc(OC)c1OC`: 144 to 150 °C.
Next, `CCn1nc(-c2nc(C(=O)O)c(NCc3ccc(OC)cc3)nc2-c2ccccc2)ccc1=O`: greater than 250 °C; `COc1cc(N)c(Cl)cc1C(=O)NCC1CCN(CCCCCOCc2ccc(Cl)cc2)CC1`: 131 to 132 °C; `N#CCCC(CCC#N)(CCC#N)[N+](=O)[O-]`: 114 °C.
As to `CCC(=O)N1C(=O)C(=O)c2cc(F)ccc21`, the melting point lay within 150 to 152 °C.
Next, `OCc1ccc2c(n1)COC(c1ccccc1)O2` (centres undefined): 85 to 89 °C.
`Cc1ccc(N)cc1Nc1ncc(-c2ccncc2)o1` returned a melting point of 158 °C.
The molecule `C=CC(=O)NC(C)(C)c1ccc(OCc2ccccc2)cc1` had a melting point of 116 to 117 °C.
Next, `N#Cc1cc([N+](=O)[O-])ccc1NC(=O)C(F)(OC(F)(F)C(F)(F)C(F)(F)F)C(F)(F)F` (centres undefined): 96 °C; `COc1cc(Nc2cc(-c3ccccc3)on2)ccc1-c1cnco1`: 173 to 175 °C; `Cc1cc(C)c(C(=O)P(=O)(Oc2ccccc2C(C)(C)C)c2ccccc2)c(C)c1` (centres undefined): 76 to 79 °C.
`CC(C)n1nc(-c2nc(C#N)c(N)nc2-c2ccccc2)ccc1=O` gave a melting point of 231 to 233 °C.
`Cc1cccc(-c2[nH]c(C(C)C)nc2-c2cccc(-c3ccc(S(=O)(=O)N4CCN(C)CC4)cc3)c2)n1` yielded a melting point of 110 to 116 °C.
For the molecule `CS(=O)(=O)c1ccc(-c2cnn3c(O)ncnc23)cc1`, the melting point is greater than 300 °C.
As for `c1ccc(C2CNc3ccccc3C2)cc1` (centres undefined), the melting point is 84 to 86 °C.
Take `COC(=O)N1CCc2cc(S(=O)(=O)Cl)ccc21`: the melting point lay within 113 to 114 °C.
Molecule `CNCCOc1ccc(C2=C(c3ccccc3)CCCc3cc(O)ccc32)cc1` gave a melting point of 184 to 187 °C.
Next, `COc1ccc(C(=O)Nc2c(Cl)cncc2Cl)c2cc(C(=O)N3CCN(C)CC3)oc12`: 224 to 225 °C; `Cc1ccc(C)n1CCN1CCCC1=O`: 66 to 68 °C; `COc1cc(N)c(Cl)cc1C(=O)NCC1CCN(CCCCCC(=O)c2ccc(C)cc2C)CC1`: 106 to 110 °C.
Next, `COc1ccc2cc([C@H](C)C(=O)NOCC(=O)O)ccc2c1`: 152 to 153 °C; `Cc1[nH]c(-c2ccccc2)c(NC(=O)CN2C(=O)c3ccccc3C2=O)c1C(=O)c1ccccc1`: 288 to 290 °C; `C=CCOc1cc(O)c(C=NO)c(Cl)c1`: 65 to 66 °C.
Next, `CC1([C@H]2CC[C@@H](O)CC2)CC1`: 56 to 57 °C; `CC(C)CC(NC(=O)C(Cc1c[nH]cn1)NC(=O)C(CC(=O)N1CCCCC1)Cc1cccc2ccccc12)C(O)C(=O)OC(C)C` (mixture of isomers): 91 to 97 °C; `CC1CC(=O)NN=C1c1ccc(NCCCN)c([N+](=O)[O-])c1` (centres undefined): 154 to 156 °C.
Turning to `C[C@H]1[C@@H](C(N)=O)CCN1c1ccc(C#N)c2ccccc12`, the melting point was in the range of 204 to 206 °C.
For `Cc1ccc2c(c1)C(CCCCN1CCN(c3ccc(Cl)cc3)CC1)C(=O)N2` (centres undefined), the melting point fell in the range of 159 to 161 °C.
`NNC(=O)[C@@H]1C[C@]2(NC(=O)NC2=O)c2cc(F)ccc2O1` returned a melting point of 277 to 278 °C.
Next, `O=[N+]([O-])c1sc2ccc(Cl)cc2c1Br`: 176 to 178 °C; `Cc1cc2c(cc1Sc1ccc(C=O)cc1)C(C)(C)CCC2(C)C`: 98 to 99 °C; `CN1Sc2ccccc2C(=O)C1C(=O)Nc1coc2ccccc2c1=O` (centres undefined): 290 °C.
For the molecule `CCCCn1sc2nc3ccccc3n2c1=O`, the melting point lay within 153 to 154 °C.
`CCOC(=O)CCn1c(C(=O)NC(N)=S)cc2ccccc21` returned a melting point of 160 to 162 °C.
Regarding `Cc1nc2c3c(ccc2n1C)C(=O)CC(c1ccccc1)O3` (centres undefined), the melting point lay in the range of 201 to 202 °C.
Molecule `Cn1cc(C[C@H]2NC(=O)[C@@H](CCC(=O)O)NC2=O)c2ccccc21` yielded a melting point of 228 °C.
Next, `Cc1cc(Nc2ccc(O)cc2)c2[nH]ncc2n1`: 174 to 176 °C; `C[C@](O)(COc1ccc(F)cc1)C(=O)Nc1ccc(C#N)c(C(F)(F)F)c1`: 139 to 140 °C.
`O=C(O)C1=Cc2cc(Cl)cc(C#CCCCCl)c2OC1C(F)(F)F` (centres undefined) displayed a melting point of 154 to 156 °C.
The molecule `O=C(O)[C@@H](Cc1ccccc1)NS(=O)(=O)c1ccc2ccccc2c1` had a melting point of 146 °C.
Next, `NCCOc1ncc(Cl)c(N)c1Cl`: 115 to 116 °C; `CC(Cl)C(=O)NOCc1ccccc1` (centres undefined): 70.1 to 72.8 °C; `CC1CN(c2ccc(Cl)c(Cl)c2)N=C1NC=O` (centres undefined): 150 to 152 °C.
For `C=CCCCCN1C(=O)c2ccccc2C1=O`, the melting point fell in the range of 17 to 20 °C.
As for `CCOC(=O)Cc1cccc(N[C@@H](CCC(N)=O)C(=O)O)c1`, the melting point was 176 °C.
Molecule `NCCOCC(O)c1cccc2ccccc12` (centres undefined) had a melting point of 89.5 to 92 °C.
`Cc1cccc(C(=O)Cc2ccnc(-c3ccc(OC(F)(F)F)cc3)c2)n1` displayed a melting point of 76 to 78 °C.
Molecule `CCOC(=O)C(C)OCc1cc2nc(Cl)ccc2n1S(=O)(=O)c1ccc2nc(N)sc2c1` (centres undefined) registered a melting point of 86 to 88 °C.
On to `Fc1ccc(C(OCCN2CCN(C(c3ccc(F)cc3)c3ccc(F)cc3)CC2)c2ccc(F)cc2)cc1`, for which the melting point lay within 87 to 88 °C.
Molecule `Cc1cc(-n2cncn2)cc(C#N)c1N` registered a melting point of 231 to 233 °C.
Molecule `C[C@@H](O)[C@H]1C(=O)N(CC(=O)OC(C)(C)C)[C@@H]1C(=O)OC(C)(C)C` came in with a melting point of 79 to 81 °C.
Next, `Cc1oc(-c2ccccc2)nc1CCOc1ccc(CCC#N)cn1`: 105 to 106 °C; `CCCc1c(OCCCCCCc2ccc3cc(OC)c(OC)cc3c2)ccc(C(=O)O)c1O`: 102 to 104 °C.
Regarding `Nc1ccc(CO)c(Nc2nccc(-c3cccnc3)n2)c1`, the melting point lay in the range of 213 to 215 °C.
`CC(C)CCCc1c(-c2ccc(S(C)(=O)=O)cc2)cnn(-c2ccc(F)c(F)c2)c1=O` gave a melting point of 111 to 113 °C.
`O=C(c1ccn2c1CSC2c1cccnc1)c1c[nH]c2cc(Br)ccc12` (centres undefined) showed a melting point of 265 °C.
Turning to `CCOCCc1nnc(S)n1N`, the melting point fell in the range of 123 to 124 °C.
`CCOC(=O)C1=C(C)NC(N=CCN(C)C)=C(C(=O)OCC)C1c1ccccc1` (centres undefined) gave a melting point of 126 °C.
`CCCCC(=O)c1c(-c2ccc3cc(OCC(=O)OCC)ccc3c2)oc2ccc(Cl)cc12`: the melting point was 80 to 83 °C.
As for `CC1(C)COC(=N)N1c1nc(-c2ccc(C#N)cc2)cs1`, the melting point lay within 158 to 161 °C.
In turn, `CCCN1CCCC1CNS(=O)(=O)c1ccc(Nc2ccnc3cc(Cl)ccc23)cc1` (centres undefined) had a melting point of 192 to 194 °C.
With `COC(=O)CN(C)C(=O)c1c(OC)ccc2c(Br)c(OC)ccc12`, the melting point was 142 to 144 °C.
Next, `Oc1cnc(-c2ccccc2)c(F)c1`: 150 to 151 °C; `Cn1cc(-c2cc3cccnc3[nH]2)c2cc(O)ccc21`: 199 to 200 °C.
The molecule `COc1ccc2c(c1)C(=S)N(C)CC(CCCl)O2` (centres undefined) gave a melting point of 98 to 100 °C.
Next, `C[C@@H](n1cnc2ccccc2c1=O)[C@](O)(Cn1cncn1)c1ccc(F)cc1F`: 122 to 128 °C; `COc1cccc(NC(=O)Nc2nc3nc(NCCCN4CCN(C)CC4)ncc3cc2-c2c(Cl)cccc2Cl)c1`: 87.5 to 92.5 °C.
Next, `CCOC(=O)c1cc2c(C)cccc2n1CCNS(=O)(=O)c1ccc(C)cc1`: 92 to 93 °C; `CCOc1ccc(N)cc1-c1nc2cccnc2c(=O)[nH]1`: 208 to 210 °C.
In turn, `CCN(C(=O)C(C)CSC(c1ccccc1)(c1ccccc1)c1ccccc1)c1cn(-c2cccnc2)nc1Cl` (centres undefined) showed a melting point of 64 to 66 °C.
Next, `CCC(=O)OCC(OC(=O)CC)C1OC(SC)C(OC(=O)CC)C1OC(=O)CC` (centres undefined): 62 to 63 °C; `O=c1[nH]c2c(CCN3CCN(c4ncccn4)CC3)cccc2o1`: 189 to 190 °C.
As to `OC(Cc1ccccc1Cl)(Cn1ccnc1S)C1(Cl)CC1` (centres undefined), the melting point was 124 to 126 °C.
Next, `Nc1cc(=O)nc(Nc2ccccc2)n1-c1ccccc1`: 202 to 206 °C.
Consider `CC(C)(C)OC(=O)N[C@H](Cc1ccc(C(F)(F)F)o1)[C@@H](O)c1ccc(F)cc1` (racemic), for which the melting point lay within 111 to 112 °C.
As to `COc1ccccc1CN(CC(=O)OC(C)(C)C)S(=O)(=O)c1ccc2c(Cl)cnc(Cl)c2c1`, the melting point lay in the range of 106 to 108 °C.
The molecule `Nc1ccc(C2=NNC(=O)Cc3cc4c(cc32)OCO4)c(Cl)c1` returned a melting point of 238 to 240 °C.
Next, `CC1(C)C(c2ccc(S(C)(=O)=O)cc2)=C(c2ccccc2)C1O` (centres undefined): 79 to 81 °C; `COc1c(C(=O)O)ccc2ccccc12`: 118 to 122 °C.
Next, `CC(C)C(=O)N=c1ccn(-c2ccccc2)nc1`: 138 °C; `CCCc1[nH]cnc1C(=O)OCC`: 175 to 179 °C; `OC(CNc1ccc(Cl)cc1)Cn1ccnc1` (centres undefined): 123 to 125 °C.
The molecule `COC(=O)c1ccc(CBr)c(SC(=O)c2ccc(C(C)(C)C)cc2)c1` came in with a melting point of 152 °C.
Molecule `CC1Sc2c(C(=O)O)c(=O)c3cc(F)c(N4CCNCC4)c(F)c3n21` (centres undefined) yielded a melting point of 260 °C.
Next, `COc1ccc(CNC(=O)n2cc(F)c(=O)[nH]c2=O)c(OC)c1OC`: 159 °C.
Molecule `COc1cn(Cc2ccc(OC)c(OC)c2)c(=O)o1` yielded a melting point of 99.5 to 102 °C.
